Legend:
DAT = DAT (Rattus norvegicus, UniProt P23977); assay: dopamine uptake in striatum of isoflurane-anesthetized rats by in vivo electrochemistry, Examples 19-20; parameters: DA clearance in striatum and nucleus accumbens of urethane-anesthetized SD rats; from tissue; host or cells: striatum / nucleus accumbens of living anesthetized SD rats; species or system SD rats
Description: After obtaining reproducible signals for locally applied DA (50-75 nl, 200 μM) to produce a control DA peak height below 1 uM, vehicle or drug was locally applied slowly over 10-30 sec (˜500 nl 250 μM), then 60 sec later the next application of DA was performed, with subsequent DA applications at 5-min intervals for 25 min. […] The DA kinetic data from each animal were analyzed using FAST software (Quanteon, LLC, Nicholasville KY USA). […] These parameters were compared between pre- and post-drug application by one-way ANOVA with Tukey's post hoc analysis, with significance assigned at p<0.05.

[1] = conditioned place preference (abuse potential); type: in vivo, SD rats
Text: In conditioned place preference a chamber with distinct cues is repeatedly paired with administration of the test drug. A second chamber is repeatedly paired with a control injection. After conditioning, a test phase allows the rat to move between the chambers. If a drug is “rewarding” (i.e. has abuse potential), the rat spends more time in the drug-associated chamber. If it is aversive, the opposite result is obtained.
Methods: 6 male and 6 female SD rats were used for each drug and dose. Test drugs (5 or 25 mg/kg lobinaline, or 25 mg/Kg of lobinaline bi-N-oxide S.C) were paired with the “less preferred” compartment (standard for drugs that may be weakly reinforcing) for 20 minutes. On the next day, rats received a control (DMSO/saline) injection and were placed in the preferred chamber. After three repeated pairings (test and control), the subjects were given access to both chambers and the time spent in each compartment was recorded and scored by an observer blind to treatment. Analysis was by two way ANOVA with post hoc Bonnferoni with significance set at p<0.05. Results. Most animals spent most of the test period in the compartment originally preferred in the drug-free state, and there were no significant differences between drug and vehicle controls.

[2] = system: rat striatal synaptosomes; assay: [3H]DA release from rat striatal synaptosomes; type: biochemical; conditions: preloaded synaptosomes; 10-500 uM tested; 30 min at 37° C
Description: [3H]DA release from rat striatal synaptosomes: Synaptosomes preloaded with [3H]DA were exposed to lobinaline (10-500 uM), 30 min @ 37° C.). [3H]DA release was calculated by subtraction of activity following drug treatment from activity in the absence of drug.

DAT, sequence (P23977 whole entry): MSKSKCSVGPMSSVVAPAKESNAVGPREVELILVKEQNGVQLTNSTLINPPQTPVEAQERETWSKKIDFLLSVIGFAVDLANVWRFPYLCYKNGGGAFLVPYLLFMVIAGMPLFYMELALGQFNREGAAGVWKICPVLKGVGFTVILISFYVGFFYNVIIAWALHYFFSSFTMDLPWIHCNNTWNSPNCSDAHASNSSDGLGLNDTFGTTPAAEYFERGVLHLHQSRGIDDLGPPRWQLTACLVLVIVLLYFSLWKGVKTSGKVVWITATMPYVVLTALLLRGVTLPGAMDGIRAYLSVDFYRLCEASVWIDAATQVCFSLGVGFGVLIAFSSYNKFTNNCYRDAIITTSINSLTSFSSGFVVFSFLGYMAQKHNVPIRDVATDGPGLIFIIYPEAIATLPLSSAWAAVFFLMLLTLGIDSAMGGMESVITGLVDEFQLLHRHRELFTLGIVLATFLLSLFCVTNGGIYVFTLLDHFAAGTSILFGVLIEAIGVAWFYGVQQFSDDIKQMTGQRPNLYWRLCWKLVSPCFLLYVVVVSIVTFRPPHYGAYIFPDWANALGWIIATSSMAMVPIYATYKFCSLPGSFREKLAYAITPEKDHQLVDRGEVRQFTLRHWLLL

## CN1CCCC2C(c3ccccc3)C(C3=NCCCC3)C(c3ccccc3)CC21 (stereo not shown) [lobinaline]
DAT; any brain region, n=8-36
  release of endogenous DA: Neither lobinaline nor its N-oxides ever caused release of endogenous DA
DAT; relative to % control
  effect on DA clearance parameters: small, but significant, reduction in all DA clearance parameters
DAT; single local application ~500 nl 250 μM, striatum, FIGS. 10, 11
  effect on amplitude of the DA signal: transient, a non-significant decrease in amplitude
[1]; after 3 repeated drug administrations
  overt toxicity: no signs of overt toxicity
[1]; lobinaline 5 or 25 mg/kg, bi-N-oxide 25 mg/Kg S.C
  sedation or locomotor activation: no sedation or locomotor activation
[1]; lobinaline 5 or 25 mg/kg, bi-N-oxide 25 mg/Kg S.C, three pairings
  conditioned place preference or aversion: neither lobinaline nor the lobinaline bi-N-oxide produced conditioned place preference or aversion
[2]
  concentration causing significant release of [3H]DA: 500 µM

Reference: US12539298B2, “Lobinaline N-oxides as positive allosteric modulators of the dopamine transporter with potential value in the treatment of substance abuse disorders” (University of Kentucky Research Foundation, priority 2019, dated 2026)
